# According to article PMC9653409, “Generative deep learning enables the discovery of a potent and selective RIPK1 inhibitor” (Nature Communications, 2022):
# Read-outs that look alike come from different tables or passages of the source.
# Experiments:
# Experiment in all cases: Kinase inhibitory activity profiling of RI-962@10 µM (406 kinases, Eurofins)
# Assay type in all cases: biochemical
# [1] = target: panel of human kinases (kinase named in endpoint) (Homo sapiens, UniProt P42338); conditions: 10 µM; read-out: Activity (%), PI3 Kinase (p110b/p85a)(h)
# Chain of panel of human kinases (kinase named in endpoint) (Homo sapiens, UniProt P42338) (P42338 whole entry): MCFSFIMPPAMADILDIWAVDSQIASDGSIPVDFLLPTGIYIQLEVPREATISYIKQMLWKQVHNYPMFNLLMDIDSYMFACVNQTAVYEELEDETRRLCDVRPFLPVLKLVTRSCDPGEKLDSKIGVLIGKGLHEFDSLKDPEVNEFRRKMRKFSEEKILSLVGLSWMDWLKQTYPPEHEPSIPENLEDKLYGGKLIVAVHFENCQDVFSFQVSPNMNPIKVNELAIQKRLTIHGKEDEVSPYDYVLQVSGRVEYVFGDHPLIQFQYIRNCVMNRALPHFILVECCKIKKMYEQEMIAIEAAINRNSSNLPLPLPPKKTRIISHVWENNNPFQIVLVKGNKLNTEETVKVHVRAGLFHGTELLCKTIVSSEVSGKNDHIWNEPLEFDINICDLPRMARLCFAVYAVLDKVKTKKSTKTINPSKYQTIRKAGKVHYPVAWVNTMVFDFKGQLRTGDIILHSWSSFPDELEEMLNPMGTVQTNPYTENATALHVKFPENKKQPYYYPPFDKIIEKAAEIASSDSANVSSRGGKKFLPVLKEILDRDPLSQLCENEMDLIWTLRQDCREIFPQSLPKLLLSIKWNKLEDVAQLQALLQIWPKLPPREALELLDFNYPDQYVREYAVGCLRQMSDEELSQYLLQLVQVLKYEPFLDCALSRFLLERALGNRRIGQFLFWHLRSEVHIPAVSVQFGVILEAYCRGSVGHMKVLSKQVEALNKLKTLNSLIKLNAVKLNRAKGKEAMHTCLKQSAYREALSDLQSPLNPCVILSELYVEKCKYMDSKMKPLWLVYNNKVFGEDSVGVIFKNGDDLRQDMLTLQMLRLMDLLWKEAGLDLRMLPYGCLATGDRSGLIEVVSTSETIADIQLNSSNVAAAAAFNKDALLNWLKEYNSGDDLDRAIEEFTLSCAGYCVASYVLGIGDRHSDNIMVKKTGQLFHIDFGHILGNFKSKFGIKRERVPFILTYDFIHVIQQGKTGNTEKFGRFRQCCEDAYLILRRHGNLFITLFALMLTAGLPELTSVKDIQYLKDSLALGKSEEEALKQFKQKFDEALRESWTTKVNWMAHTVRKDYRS
# How it was run: (§1)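 Radiometric filter-binding kinase assays: enzyme preincubated 15 min with compound in 8 mM MOPS pH 7.0, 0.2 mM EDTA, 250 μM peptide substrate, 10 mM magnesium acetate, 10 μM [γ-33P]-ATP. Reaction started with Mg/ATP, run 40 min at room temperature, stopped with phosphoric acid; 33P incorporation read by scintillation counting. Other kinases by similar protocols.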
# [2] = target: panel of human kinases (kinase named in endpoint) (Homo sapiens, UniProt O43293); conditions: 10 µM; read-out: Activity (%), ZIPK(h)
# Chain of panel of human kinases (kinase named in endpoint) (Homo sapiens, UniProt O43293) (O43293 whole entry): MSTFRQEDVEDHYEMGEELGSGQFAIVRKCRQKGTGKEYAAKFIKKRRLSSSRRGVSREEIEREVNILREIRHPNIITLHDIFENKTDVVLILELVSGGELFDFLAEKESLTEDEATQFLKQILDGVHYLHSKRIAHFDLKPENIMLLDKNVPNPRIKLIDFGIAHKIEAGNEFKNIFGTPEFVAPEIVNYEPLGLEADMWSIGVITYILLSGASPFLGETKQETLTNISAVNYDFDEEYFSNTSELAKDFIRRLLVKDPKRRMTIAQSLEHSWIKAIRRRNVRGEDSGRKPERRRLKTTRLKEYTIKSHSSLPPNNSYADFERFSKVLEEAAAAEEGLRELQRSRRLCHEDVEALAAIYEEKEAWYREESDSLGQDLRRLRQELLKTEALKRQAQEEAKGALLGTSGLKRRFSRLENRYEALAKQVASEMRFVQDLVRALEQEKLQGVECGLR
# How it was run: as §1
# [3] = target: panel of human kinases (kinase named in endpoint) (Homo sapiens, UniProt P49760); conditions: 10 µM; read-out: Activity (%), CLK2(h)
# How it was run: as §1
# [4] = target: panel of human kinases (kinase named in endpoint) (Homo sapiens, UniProt Q16513); conditions: 10 µM; read-out: Activity (%), PRK2(h)
# How it was run: as §1
# [5] = target: panel of human kinases (kinase named in endpoint) (Homo sapiens, UniProt O95819); conditions: 10 µM; read-out: Activity (%), MAP4K4(h)
# How it was run: as §1
# [6] = target: panel of human kinases (kinase named in endpoint) (Homo sapiens, UniProt P07333); conditions: 10 µM; read-out: Activity (%), Fms(h)
# Chain of panel of human kinases (kinase named in endpoint) (Homo sapiens, UniProt P07333) (P07333 20-972): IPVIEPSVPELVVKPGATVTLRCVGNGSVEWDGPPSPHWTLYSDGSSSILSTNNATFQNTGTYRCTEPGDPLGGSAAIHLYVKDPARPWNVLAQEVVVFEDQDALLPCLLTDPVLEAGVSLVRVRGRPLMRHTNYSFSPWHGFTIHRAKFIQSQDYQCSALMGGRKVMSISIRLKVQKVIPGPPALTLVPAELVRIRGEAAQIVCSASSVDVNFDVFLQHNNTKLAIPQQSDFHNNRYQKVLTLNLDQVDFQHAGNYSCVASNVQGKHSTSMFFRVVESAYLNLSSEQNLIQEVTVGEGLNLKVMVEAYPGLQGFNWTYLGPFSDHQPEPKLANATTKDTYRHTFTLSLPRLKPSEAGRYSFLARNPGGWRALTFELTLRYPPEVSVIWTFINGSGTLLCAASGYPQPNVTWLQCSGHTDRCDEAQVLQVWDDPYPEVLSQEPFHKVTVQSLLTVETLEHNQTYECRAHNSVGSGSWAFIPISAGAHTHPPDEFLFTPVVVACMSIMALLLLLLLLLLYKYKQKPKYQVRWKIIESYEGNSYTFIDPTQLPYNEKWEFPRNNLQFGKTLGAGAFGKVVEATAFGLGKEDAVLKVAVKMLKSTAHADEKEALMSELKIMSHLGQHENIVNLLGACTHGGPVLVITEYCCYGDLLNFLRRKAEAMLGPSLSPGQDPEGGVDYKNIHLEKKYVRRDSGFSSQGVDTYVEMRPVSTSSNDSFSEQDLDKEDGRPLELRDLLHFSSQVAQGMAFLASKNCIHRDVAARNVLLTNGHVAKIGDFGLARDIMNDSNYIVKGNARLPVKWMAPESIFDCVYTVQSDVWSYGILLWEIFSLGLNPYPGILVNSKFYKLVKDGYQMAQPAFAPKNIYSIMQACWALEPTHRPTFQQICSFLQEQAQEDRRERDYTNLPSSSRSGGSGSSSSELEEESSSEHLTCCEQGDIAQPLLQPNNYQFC
# How it was run: as §1
# [7] = target: panel of human kinases (kinase named in endpoint) (Homo sapiens, UniProt Q99986); conditions: 10 µM; read-out: Activity (%), VRK1(h)
# How it was run: as §1
# [8] = target: panel of human kinases (kinase named in endpoint) (Homo sapiens, UniProt Q96RG2); conditions: 10 µM; read-out: Activity (%), PASK(h)
# How it was run: as §1
# [9] = target: panel of human kinases (kinase named in endpoint) (Homo sapiens, UniProt Q9P289); conditions: 10 µM; read-out: Activity (%), MST4(h)
# How it was run: as §1
# [10] = target: panel of human kinases (kinase named in endpoint) (Homo sapiens, UniProt Q9C098); conditions: 10 µM; read-out: Activity (%), DCAMKL3(h)
# How it was run: as §1
# [11] = target: panel of human kinases (kinase named in endpoint) (Homo sapiens, UniProt Q5MAI5); conditions: 10 µM; read-out: Activity (%), CDKL4(h)
# How it was run: as §1
# [12] = target: panel of human kinases (kinase named in endpoint) (Homo sapiens, UniProt P53779); conditions: 10 µM; read-out: Activity (%), JNK3(h)
# How it was run: as §1
# [13] = target: panel of human kinases (kinase named in endpoint) (Homo sapiens, UniProt P36507); conditions: 10 µM; read-out: Activity (%), MEK2(h)
# Chain of panel of human kinases (kinase named in endpoint) (Homo sapiens, UniProt P36507) (P36507 whole entry): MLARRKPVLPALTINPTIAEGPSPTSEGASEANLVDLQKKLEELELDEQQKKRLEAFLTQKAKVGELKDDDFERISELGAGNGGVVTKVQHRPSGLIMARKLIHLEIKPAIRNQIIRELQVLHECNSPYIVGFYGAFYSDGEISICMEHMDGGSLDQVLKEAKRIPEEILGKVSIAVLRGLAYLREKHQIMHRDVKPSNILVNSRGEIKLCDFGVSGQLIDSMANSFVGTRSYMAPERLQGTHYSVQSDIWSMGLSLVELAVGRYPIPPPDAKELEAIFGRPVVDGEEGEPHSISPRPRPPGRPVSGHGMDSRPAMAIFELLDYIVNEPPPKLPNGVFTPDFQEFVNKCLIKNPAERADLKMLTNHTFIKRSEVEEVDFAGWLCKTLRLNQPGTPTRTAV
# How it was run: as §1
# [14] = target: panel of human kinases (kinase named in endpoint) (Homo sapiens, UniProt Q9NSY1); conditions: 10 µM; read-out: Activity (%), BIKe(h)
# How it was run: as §1
# [15] = target: panel of human kinases (kinase named in endpoint) (Homo sapiens, UniProt P08631); conditions: 10 µM
# Chain of panel of human kinases (kinase named in endpoint) (Homo sapiens, UniProt P08631) (P08631 whole entry): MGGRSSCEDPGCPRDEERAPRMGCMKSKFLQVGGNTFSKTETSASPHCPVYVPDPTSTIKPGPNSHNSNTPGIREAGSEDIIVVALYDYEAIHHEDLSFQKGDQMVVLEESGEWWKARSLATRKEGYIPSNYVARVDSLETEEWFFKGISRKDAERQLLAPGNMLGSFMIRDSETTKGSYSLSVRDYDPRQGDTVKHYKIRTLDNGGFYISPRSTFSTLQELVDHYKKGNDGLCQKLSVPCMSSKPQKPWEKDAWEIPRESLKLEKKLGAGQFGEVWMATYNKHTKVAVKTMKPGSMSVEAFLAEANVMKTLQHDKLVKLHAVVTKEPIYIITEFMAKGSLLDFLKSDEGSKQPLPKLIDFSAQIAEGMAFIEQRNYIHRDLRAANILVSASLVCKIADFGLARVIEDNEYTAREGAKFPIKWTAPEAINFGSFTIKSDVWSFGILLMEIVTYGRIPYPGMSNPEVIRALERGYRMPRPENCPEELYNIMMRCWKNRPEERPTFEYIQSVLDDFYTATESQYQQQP
# How it was run: as §1
# [16] = target: panel of human kinases (kinase named in endpoint) (Homo sapiens, UniProt P11362, V561M); conditions: 10 µM; read-out: Activity (%), FGFR1(V561M)(h)
# How it was run: as §1
# [17] = target: panel of human kinases (kinase named in endpoint) (Homo sapiens, UniProt Q9H1R3); conditions: 10 µM; read-out: Activity (%), MYLK2(h)
# Chain of panel of human kinases (kinase named in endpoint) (Homo sapiens, UniProt Q9H1R3) (Q9H1R3 whole entry): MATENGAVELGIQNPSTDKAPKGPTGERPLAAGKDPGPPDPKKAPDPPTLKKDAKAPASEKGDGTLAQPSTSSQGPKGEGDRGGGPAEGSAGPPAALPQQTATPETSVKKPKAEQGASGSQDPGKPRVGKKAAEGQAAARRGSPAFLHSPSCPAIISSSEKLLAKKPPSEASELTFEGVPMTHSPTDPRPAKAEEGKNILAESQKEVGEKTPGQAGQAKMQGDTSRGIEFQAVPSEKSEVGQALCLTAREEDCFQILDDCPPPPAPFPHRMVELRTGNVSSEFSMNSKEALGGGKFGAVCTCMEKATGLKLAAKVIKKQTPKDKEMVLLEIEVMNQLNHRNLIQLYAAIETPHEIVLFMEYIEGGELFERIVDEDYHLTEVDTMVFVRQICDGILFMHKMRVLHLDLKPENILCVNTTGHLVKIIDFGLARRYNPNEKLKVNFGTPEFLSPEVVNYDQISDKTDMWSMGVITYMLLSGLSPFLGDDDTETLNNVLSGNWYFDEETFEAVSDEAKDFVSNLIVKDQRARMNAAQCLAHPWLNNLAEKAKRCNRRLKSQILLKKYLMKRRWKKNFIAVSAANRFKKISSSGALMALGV
# How it was run: as §1
# [18] = target: panel of human kinases (kinase named in endpoint) (Homo sapiens, UniProt P54764); conditions: 10 µM; read-out: Activity (%), EphA4(h)
# Chain of panel of human kinases (kinase named in endpoint) (Homo sapiens, UniProt P54764) (P54764 20-986): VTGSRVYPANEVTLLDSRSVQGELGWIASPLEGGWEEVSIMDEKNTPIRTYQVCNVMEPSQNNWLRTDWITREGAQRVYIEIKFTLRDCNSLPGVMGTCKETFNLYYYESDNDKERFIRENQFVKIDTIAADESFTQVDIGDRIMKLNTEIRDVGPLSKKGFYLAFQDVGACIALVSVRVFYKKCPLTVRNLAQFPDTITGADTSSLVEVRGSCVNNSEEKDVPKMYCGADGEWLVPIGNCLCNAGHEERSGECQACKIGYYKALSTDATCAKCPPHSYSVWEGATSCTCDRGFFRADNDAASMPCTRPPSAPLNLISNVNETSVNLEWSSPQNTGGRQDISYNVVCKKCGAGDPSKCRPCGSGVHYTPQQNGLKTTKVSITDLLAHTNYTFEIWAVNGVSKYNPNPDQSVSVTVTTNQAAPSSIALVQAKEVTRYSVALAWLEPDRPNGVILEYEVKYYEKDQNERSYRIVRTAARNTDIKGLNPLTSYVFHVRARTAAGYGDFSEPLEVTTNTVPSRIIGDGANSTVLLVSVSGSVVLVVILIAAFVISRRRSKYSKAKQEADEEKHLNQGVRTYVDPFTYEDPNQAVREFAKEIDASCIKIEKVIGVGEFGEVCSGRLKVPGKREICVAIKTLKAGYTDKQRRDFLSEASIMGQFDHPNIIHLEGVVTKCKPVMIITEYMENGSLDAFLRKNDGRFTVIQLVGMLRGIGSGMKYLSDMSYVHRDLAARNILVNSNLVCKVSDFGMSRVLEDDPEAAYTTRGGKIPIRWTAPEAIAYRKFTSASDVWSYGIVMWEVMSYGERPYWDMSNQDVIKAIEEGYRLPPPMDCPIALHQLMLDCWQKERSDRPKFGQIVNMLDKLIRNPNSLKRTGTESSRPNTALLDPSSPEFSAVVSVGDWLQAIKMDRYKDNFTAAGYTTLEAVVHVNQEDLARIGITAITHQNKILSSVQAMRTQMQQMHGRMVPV
# How it was run: as §1
# [19] = target: panel of human kinases (kinase named in endpoint) (Homo sapiens, UniProt Q96PF2); conditions: 10 µM; read-out: Activity (%), TSSK2(h)
# How it was run: as §1
# [20] = tested on: panel of human kinases (kinase named in endpoint); conditions: 10 µM
# How it was run: as §1
# [21] = target: panel of human kinases (kinase named in endpoint) (Homo sapiens, UniProt Q9Y3S1); conditions: 10 µM; read-out: Activity (%), WNK2(h)
# How it was run: as §1
# [22] = target: panel of human kinases (kinase named in endpoint) (Homo sapiens, UniProt Q9H422); conditions: 10 µM; read-out: Activity (%), HIPK3(h)
# How it was run: as §1
# [23] = target: panel of human kinases (kinase named in endpoint) (Homo sapiens, UniProt P43250); conditions: 10 µM; read-out: Activity (%), GRK6(h)
# How it was run: as §1
# [24] = target: panel of human kinases (kinase named in endpoint) (Homo sapiens, UniProt P23458); conditions: 10 µM; read-out: Activity (%), JAK1(h)
# How it was run: as §1
# [25] = target: panel of human kinases (kinase named in endpoint) (Homo sapiens, UniProt P29597); conditions: 10 µM; read-out: Activity (%), TYK2(h)
# How it was run: as §1
smiles,measurement,setting,value
CC(C)C(=O)Nc1nc2cc(-c3ccc4c(c3)c(C(=O)NC(C)c3ccccc3)cn4C)ccn2n1 (stereo not drawn) [RI-962],activity at 10 µM,[1],88%
same,activity at 10 µM,[2],102%
same,activity at 10 µM,[3],94%
same,activity at 10 µM,[4],101%
same,activity at 10 µM,[5],88%
same,activity at 10 µM,[6],111%
same,activity at 10 µM,[7],86%
same,activity at 10 µM,[8],71%
same,activity at 10 µM,[9],119%
same,activity at 10 µM,[10],100%
same,activity at 10 µM,[11],70%
same,activity at 10 µM,[12],56%
same,activity at 10 µM,[13],86%
same,activity at 10 µM,[14],60%
same,activity at 10 µM,"[15]; read-out: Activity (%), Hck(h)",93%
same,activity at 10 µM,"[15]; read-out: Activity (%), Hck(h) activated",97%
same,activity at 10 µM,[16],99%
same,activity at 10 µM,[17],86%
same,activity at 10 µM,[18],77%
same,activity at 10 µM,[19],76%
same,"Activity (%), ACTR2(h)",[20],81%
same,"Activity (%), CK1(y)",[20],100%
same,"Activity (%), MAPK1(h)",[20],94%
same,"Activity (%), PKCβII(h)",[20],87%
same,"Activity (%), PKG1β(h)",[20],98%
same,activity at 10 µM,[21],79%
same,activity at 10 µM,[22],89%
same,activity at 10 µM,[23],108%
same,activity at 10 µM,[24],85%
same,activity at 10 µM,[25],113%
